Results as given in BindingDB's records for PubMed 3012067 (Johns Hopkins University, 1986).
Where “and” joins values, the source holds several entries; their conditions need not be identical. Equal entries are not always repeated.

What follows are compounds tested against Voltage-dependent L-type calcium channel subunit alpha-1C (Rattus norvegicus, UniProt P22002).
Chain of Voltage-dependent L-type calcium channel subunit alpha-1C (P22002 whole entry): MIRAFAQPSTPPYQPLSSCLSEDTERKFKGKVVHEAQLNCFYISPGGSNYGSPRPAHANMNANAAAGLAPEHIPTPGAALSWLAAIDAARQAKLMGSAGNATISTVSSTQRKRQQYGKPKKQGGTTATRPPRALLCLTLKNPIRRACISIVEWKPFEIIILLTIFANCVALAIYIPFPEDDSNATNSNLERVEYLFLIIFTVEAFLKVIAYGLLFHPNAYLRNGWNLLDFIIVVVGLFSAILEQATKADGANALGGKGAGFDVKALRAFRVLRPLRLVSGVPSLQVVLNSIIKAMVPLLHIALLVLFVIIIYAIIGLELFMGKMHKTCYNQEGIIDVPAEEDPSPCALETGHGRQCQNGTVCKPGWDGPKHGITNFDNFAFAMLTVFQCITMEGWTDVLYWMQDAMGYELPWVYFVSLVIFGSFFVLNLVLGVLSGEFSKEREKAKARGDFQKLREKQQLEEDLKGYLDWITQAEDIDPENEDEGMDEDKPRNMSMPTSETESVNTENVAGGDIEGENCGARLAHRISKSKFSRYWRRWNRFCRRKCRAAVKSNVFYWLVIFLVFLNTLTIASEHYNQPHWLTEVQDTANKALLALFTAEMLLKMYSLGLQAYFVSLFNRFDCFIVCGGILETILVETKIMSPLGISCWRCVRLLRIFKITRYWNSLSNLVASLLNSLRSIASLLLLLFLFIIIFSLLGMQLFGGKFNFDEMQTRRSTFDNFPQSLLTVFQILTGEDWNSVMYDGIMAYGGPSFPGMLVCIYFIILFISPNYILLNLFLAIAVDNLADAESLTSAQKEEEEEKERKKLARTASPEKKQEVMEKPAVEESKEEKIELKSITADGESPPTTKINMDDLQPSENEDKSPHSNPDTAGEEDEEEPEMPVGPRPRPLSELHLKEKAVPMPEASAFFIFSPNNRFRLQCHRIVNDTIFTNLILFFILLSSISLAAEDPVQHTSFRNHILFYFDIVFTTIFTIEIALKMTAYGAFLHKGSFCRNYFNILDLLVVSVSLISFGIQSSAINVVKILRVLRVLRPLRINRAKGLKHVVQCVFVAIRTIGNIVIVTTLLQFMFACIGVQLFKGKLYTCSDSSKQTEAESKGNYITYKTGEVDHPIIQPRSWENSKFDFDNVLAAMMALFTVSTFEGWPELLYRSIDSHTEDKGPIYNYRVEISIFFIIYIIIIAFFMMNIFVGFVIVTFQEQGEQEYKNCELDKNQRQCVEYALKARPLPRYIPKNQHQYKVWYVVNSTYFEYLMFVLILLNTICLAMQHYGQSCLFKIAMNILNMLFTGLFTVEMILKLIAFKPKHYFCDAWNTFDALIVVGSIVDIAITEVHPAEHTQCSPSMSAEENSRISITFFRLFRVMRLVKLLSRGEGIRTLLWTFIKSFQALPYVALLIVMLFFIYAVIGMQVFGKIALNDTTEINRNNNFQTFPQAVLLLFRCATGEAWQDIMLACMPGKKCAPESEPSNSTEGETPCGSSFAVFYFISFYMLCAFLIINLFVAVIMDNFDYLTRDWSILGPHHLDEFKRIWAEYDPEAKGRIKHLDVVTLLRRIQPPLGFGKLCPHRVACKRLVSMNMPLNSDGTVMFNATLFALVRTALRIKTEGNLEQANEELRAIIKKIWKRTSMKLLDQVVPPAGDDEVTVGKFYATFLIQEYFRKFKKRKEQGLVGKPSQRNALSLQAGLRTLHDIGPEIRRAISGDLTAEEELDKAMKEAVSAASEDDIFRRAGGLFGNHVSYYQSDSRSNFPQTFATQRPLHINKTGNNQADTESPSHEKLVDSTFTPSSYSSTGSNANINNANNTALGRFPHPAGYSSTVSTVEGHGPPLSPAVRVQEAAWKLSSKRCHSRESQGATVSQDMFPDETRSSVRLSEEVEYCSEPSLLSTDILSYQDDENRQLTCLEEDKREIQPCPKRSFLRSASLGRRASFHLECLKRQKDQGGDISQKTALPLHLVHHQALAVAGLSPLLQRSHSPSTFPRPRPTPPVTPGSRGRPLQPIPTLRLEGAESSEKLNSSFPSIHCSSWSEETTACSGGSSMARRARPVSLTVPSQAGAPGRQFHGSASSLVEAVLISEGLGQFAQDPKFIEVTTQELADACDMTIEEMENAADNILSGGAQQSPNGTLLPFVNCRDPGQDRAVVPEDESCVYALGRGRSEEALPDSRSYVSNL
`Cc1cccc(C)c1NC(=O)CN1CCN(CCCC(c2ccc(F)cc2)c2ccc(F)cc2)CC1` was tested, and the Ki was 305 nM and 188 nM.
`CN(C)C(=O)C(CCN1CCC(O)(c2ccc(Cl)cc2)CC1)(c1ccccc1)c1ccccc1` was tested, and the Ki was 205 nM and 127 nM.
In the case of `COc1ccc(CCN(C)CCCC2(c3ccc(OC)c(OC)c3)S(=O)(=O)CCCS2(=O)=O)cc1OC`, the Ki is reported as 1440 nM and 416 nM.
With `CC(Cc1ccccc1)NCCC(c1ccccc1)c1ccccc1` (centres undefined) the Ki was 384 nM and 320 nM.
`CC(C)COC[C@H](CN(Cc1ccccc1)c1ccccc1)N1CCCC1` was tested, and the Ki was 547 nM and 241 nM.
For `COC(=O)C1=C(C)N=C(C)C([N+](=O)[O-])C1c1ccccc1C(F)(F)F` (centres undefined) [Bay k 8644], the Ki was 1110 nM.
For `COc1ccc(CCN(C)CCCC(C#N)(c2cc(OC)c(OC)c(OC)c2)C(C)C)cc1OC` (centres undefined) [GALLOPAMIL], the Ki was 21.4 nM and 22.5 nM.
In the case of `CCOP(=O)(Cc1ccc(-c2nc3ccccc3s2)cc1)OCC` [NSC_53421], the Ki is reported as 1690 nM and 442 nM.
`CCOC(=O)C1=C(C)N=C(C)C(C(=O)OCC)C1c1ccccc1C(F)(F)F` (centres undefined) [NSC_168089] was tested, and the Ki was 268 nM.
